Experimental data from US12195473B2, “KRAS mutant protein inhibitors” (JACOBIO PHARMACEUTICALS CO., LTD, priority 2019, dated 2025).
pIC50: −log10 of the molar value. Like-named read-outs stand apart in the source and are kept apart here.

Experiments:
HIS-KRAS (G12C) = format: biochemical; details: read-out: SOS1 catalyzed nucleotide exchange IC50
[1] = tested on: NCI-H358 cells expressing KRAS G12C; assay: Phospho-ERK1/2(THR202/TYR204) HTRF assay; format: cell-based; details: 2 hours incubation, read-out: p-ERK IC50
Method: NCI-H358 cells expressing KRAS G12C were cultured in RPMI 1640 medium (Gibco) containing 10% fetal bovine serum (Gibco). The NCI-H358 cells in culture medium were seeded in 96-well plates at a concentration of 40,000 cells/well and then put in a 37° C./5% CO2 cell incubator to incubate overnight. The next day, culture medium was removed and the compound diluted in assay medium (RPMI 1640, 0.1% FBS) was added in each well. After 2 hours incubation in a 37° C./5% CO2 cell incubator, the assay medium in 96-well plates was removed, then 50 μL of 1× blocking reagent-supplemented lysis buffer (Cisbio) was added and the plates were incubated at 25° C. for 45 min with shaking. 10 μL of cell lysates from the 96-well plates were transferred to a 384-well plate (Greiner) containing 2.5 μL/well HTRF® pre-mixed antibodies (Cisbio 64AERPEH). Incubate 4 hours at 25° C. and then read HTRF signals on Tecan Spark multimode microplate reader. The data were analyzed using a 4-parameter logistic model to calculate IC50 values.

[2] = Mouse pharmacokinetic study; format: in vivo, Balb/c mouse
Method: 3. Mouse Pharmacokinetic Study
The purpose of this study was to evaluate the pharmacokinetic properties of compounds in Balb/c mouse (♀) following single dose administration. The day before administration, mice were fasted overnight and free access to water. Six mice were needed for each compound and the six mice were divided into two groups (n=3/group), group A and group B. Mice in group A were treated with a single 3 mg/kg dose of compound (iv). Mice in group B were treated with a single 10 mg/kg dose of compound (po). For each mouse in group A, blood samples were collected at pre-dose, and at the time point of 0.083, 0.25, 0.5, 1, 2, 4, 6, 8 and 24 h post-dose. For each mouse in group B, blood samples were collected at pre-dose, and at the time point of 0.25, 0.5, 1, 2, 3, 4, 6, 8 and 24 h post-dose. Blood samples were placed on ice until centrifugation to obtain plasma samples. The plasma samples were stored at −80° C. until analysis. The concentration of compound in plasma samples were determined using a LC-MS/MS method.

[3] = GDP-loaded HIS-KRAS (G12C), 1 hour pre-incubation with compound, TR-FRET

Structure (SMILES)	pIC50 (HIS-KRAS (G12C); [3])	further results
C=CC(=O)N1CCN(c2c(C#N)c(=O)n(-c3c(C)ccnc3C(C)C)c3nc(-c4c(N)c(F)c(F)c(F)c4F)c(Cl)cc23)CC1 (atropisomer, axis not shown; (P)) [Compound 1-1, (P)-4-(4-acryloylpiperazin-1-yl)-7-(2-amino-3,4,5,6-tetrafluorophenyl)-6-chloro-1-(2-isopropyl-4-methylpyridin-3-yl)-2-oxo-1,2-dihydro-1,8-naphthyridine-3-carbonitrile]	–	pIC50 (HIS-KRAS (G12C)): 7.85; pIC50 [1]: 6.75
C=CC(=O)N1CCN(c2c(C#N)c(=O)n(-c3c(C)ccnc3C(C)C)c3nc(-c4c(N)c(Cl)c(F)c(F)c4F)c(Cl)cc23)CC1 [Compound 3, 4-(4-acryloylpiperazin-1-yl)-7-(2-amino-3-chloro-4,5,6-trifluorophenyl)-6-chloro-1-(2-isopropyl-4-methylpyridin-3-yl)-2-oxo-1,2-dihydro-1,8-naphthyridine-3-carbonitrile]	8.44	–
C=CC(=O)N1CCN(c2c(C#N)c(=O)n(-c3c(C)ccnc3C(C)C)c3nc(-c4c(N)c(Cl)c(F)c(Cl)c4F)c(Cl)cc23)CC1 [Compound 4, 4-(4-acryloylpiperazin-1-yl)-7-(2-amino-3,5-dichloro-4,6-difluorophenyl)-6-chloro-1-(2-isopropyl-4-methylpyridin-3-yl)-2-oxo-1,2-dihydro-1,8-naphthyridine-3-carbonitrile]	8.46	–
C=CC(=O)N1CCN(c2c(C#N)c(=O)n(-c3c(C)ccnc3C(C)C)c3nc(-c4c(F)c(N)c(F)c(F)c4F)c(Cl)cc23)CC1 [Compound 6, 4-(4-acryloylpiperazin-1-yl)-7-(3-amino-2,4,5,6-tetrafluorophenyl)-6-chloro-1-(2-isopropyl-4-methylpyridin-3-yl)-2-oxo-1,2-dihydro-1,8-naphthyridine-3-carbonitrile]	8.82	–
C=CC(=O)N1[C@H](C)CN(c2c(C#N)c(=O)n(-c3c(C)ccnc3C(C)C)c3nc(-c4c(F)c(F)c(F)c(N)c4Cl)c(Cl)cc23)C[C@@H]1C [Compound 7, 4-((3S,5R)-4-acryloyl-3,5-dimethylpiperazin-1-yl)-7-(3-amino-2-chloro-4,5,6-trifluorophenyl)-6-chloro-1-(2-isopropyl-4-methylpyridin-3-yl)-2-oxo-1,2-dihydro-1,8-naphthyridine-3-carbonitrile]	7.83	–
C=CC(=O)N1[C@H](C)CN(c2c(C#N)c(=O)n(-c3c(C)ccnc3C(C)C)c3nc(-c4c(F)c(N)c(F)c(F)c4F)c(Cl)cc23)C[C@@H]1C [Compound 8, 4-((3S,5R)-4-acryloyl-3,5-dimethylpiperazin-1-yl)-7-(3-amino-2,4,5,6-tetrafluorophenyl)-6-chloro-1-(2-isopropyl-4-methylpyridin-3-yl)-2-oxo-1,2-dihydro-1,8-naphthyridine-3-carbonitrile]	8.18	–
C=CC(=O)N1CCN(c2c(C#N)c(=O)n(-c3c(C)ccnc3C(C)C)c3nc(-c4c(N)c(F)c(F)c(F)c4F)c(Cl)cc23)C[C@H]1C [Compound 9, 4-((R)-4-acryloyl-3-methylpiperazin-1-yl)-7-(2-amino-3,4,5,6-tetrafluorophenyl)-6-chloro-1-(2-isopropyl-4-methylpyridin-3-yl)-2-oxo-1,2-dihydro-1,8-naphthyridine-3-carbonitrile]	8.64	–
C=CC(=O)N1CCN(c2c(C#N)c(=O)n(-c3c(C)ccnc3C(C)C)c3nc(-c4c(N)c(F)c(F)c(F)c4F)c(Cl)cc23)[C@@H](C)C1 [Compound 11, 4-((S)-4-acryloyl-2-methylpiperazin-1-yl)-7-(2-amino-3,4,5,6-tetrafluorophenyl)-6-chloro-1-(2-isopropyl-4-methylpyridin-3-yl)-2-oxo-1,2-dihydro-1,8-naphthyridine-3-carbonitrile]	–	Pharmacokinetic properties (in words) ([2]; mouse model, compared with Compound A, Amgen 6 and Amgen 6.3): excellent pharmacokinetic properties; clearance ([2]; plasma, Balb/c mouse (female), 3 mg/kg, iv): 7.2 mL/min/kg; Vd ([2]; plasma, Balb/c mouse (female), 3 mg/kg, iv, read-out: Vss): 1 L/kg; Cmax ([2]; plasma, Balb/c mouse (female), 10 mg/kg, po): 3340 ng/mL; AUC(0-t) ([2]; plasma, Balb/c mouse (female), 10 mg/kg, po, read-out: AUC0-24 h): 9590 ng·h/mL; bioavailability ([2]; plasma, Balb/c mouse (female), 10 mg/kg, po, read-out: Oral BA (F %)): 38%
C=CC(=O)N1CCN(c2c(C#N)c(=O)n(-c3c(C)ccnc3C(C)C)c3nc(-c4c(F)c(F)c(F)c(N)c4Cl)c(Cl)cc23)CC1 [Compound 12, 4-(4-acryloylpiperazin-1-yl)-7-(3-amino-2-chloro-4,5,6-trifluorophenyl)-6-chloro-1-(2-isopropyl-4-methylpyridin-3-yl)-2-oxo-1,2-dihydro-1,8-naphthyridine-3-carbonitrile]	–	pIC50 (HIS-KRAS (G12C)): 8.41
C=CC(=O)N1[C@H](C)CN(c2c(C#N)c(=O)n(-c3c(C)ccnc3C(C)C)c3nc(-c4c(N)c(F)c(F)c(F)c4F)c(Cl)cc23)C[C@@H]1C [Compound 13, 4-((3S,5R)-4-acryloyl-3,5-dimethylpiperazin-1-yl)-7-(2-amino-3,4,5,6-tetrafluorophenyl)-6-chloro-1-(2-isopropyl-4-methylpyridin-3-yl)-2-oxo-1,2-dihydro-1,8-naphthyridine-3-carbonitrile]	8.18	–
C=CC(=O)N1CCN(c2c(C#N)c(=O)n(-c3c(C)ccnc3C(C)C)c3nc(-c4c(N)c(F)c(F)c(F)c4F)c(Cl)cc23)C[C@H]1C [Compound 14, 4-((R)-4-acryloyl-3-methylpiperazin-1-yl)-7-(2-amino-3,4,5,6-tetrafluorophenyl)-6-chloro-1-(2-isopropyl-4-methylpyridin-3-yl)-2-oxo-1,2-dihydro-1,8-naphthyridine-3-carbonitrile]	8.45	–
C=CC(=O)N1CCN(c2c(C#N)c(=O)n(-c3c(C)ccnc3C(C)C)c3nc(-c4c(N)cccc4F)c(Cl)cc23)CC1 [Compound A, 4-(4-acryloylpiperazin-1-yl)-7-(2-amino-6-fluorophenyl)-6-chloro-1-(2-isopropyl-4-methylpyridin-3-yl)-2-oxo-1,2-dihydro-1,8-naphthyridine-3-carbonitrile, reference compound]	8.77	–
